Measured values: PubChem BioAssay AID330 (DTP/NCI, 2004)
Several values for one entry are separate records, joined by “and”; a condition that tells them apart may be missing. Identical values can stand only once. Inconclusive results and toxic doses are left out. Rule for the calls: active = survival T/C of 150% or more; inactive = T/C below 125% in these data.

Test system: P388 leukemia ip, CD2F1 mice, survival T/C
Assay: NCI In Vivo Anticancer Drug Screen. Data for tumor model P388 Leukemia (intraperitoneal) in CD2F1 (CDF1) mice
Conditions: endpoint: median survival time, higher = longer survival
Procedure, shortened: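 Mice carrying the transplanted tumor received test compound or vehicle. Survival was recorded in each group, and the value is the treated-group measurement divided by that of the vehicle-treated control group.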

[1] = dose: 50.0 mg/kg/injection, schedule: Q01DX009 (ip), vehicle: Klucel (hydroxypropylcellulose) (HPC)
[2] = dose: 7.5 mg/kg/injection, schedule: Q01DX005 (ip), vehicle: saline with Tween-80
[3] = dose: 15.0 mg/kg/injection, schedule: Q01DX005 (ip), vehicle: saline with Tween-80
[4] = dose: 100.0 mg/kg/injection, schedule: Q04DX003 (ip), vehicle: saline with Tween-80
[5] = dose: 200.0 mg/kg/injection, schedule: Q04DX003 (ip), vehicle: saline with Tween-80
[6] = dose: 50.0 mg/kg/injection, schedule: Q01DX005 (ip), vehicle: Klucel (hydroxypropylcellulose) (HPC)
[7] = dose: 100.0 mg/kg/injection, schedule: Q01DX005 (ip), vehicle: Klucel (hydroxypropylcellulose) (HPC)
[8] = dose: 200.0 mg/kg/injection, schedule: Q01DX005 (ip), vehicle: Klucel (hydroxypropylcellulose) (HPC)
[9] = dose: 50.0 mg/kg/injection, schedule: Q04DX003 (ip), vehicle: saline with Tween-80
[10] = dose: 100.0 mg/kg/injection, schedule: Q04DX002 (ip), vehicle: saline with Tween-80
[11] = dose: 200.0 mg/kg/injection, schedule: Q04DX002 (ip), vehicle: saline with Tween-80
[12] = dose: 50.0 mg/kg/injection, schedule: Q01DX009 (ip), vehicle: saline
[13] = dose: 100.0 mg/kg/injection, schedule: Q01DX009 (ip), vehicle: saline
[14] = dose: 200.0 mg/kg/injection, schedule: Q01DX009 (ip), vehicle: saline
[15] = dose: 50.0 mg/kg/injection, schedule: Q01DX009 (ip), vehicle: saline with Tween-80
[16] = dose: 400.0 mg/kg/injection, schedule: Q04DX002 (ip), vehicle: saline with Tween-80

Measured: T/C

COC(=O)c1ccccc1NC(CCN1CCN(c2ccccc2)CC1)=NC(C)(C)C
inactive: [1] 100 % of control | dose: 100.0 mg/kg/injection, schedule: Q01DX009 (ip), vehicle: Klucel (hydroxypropylcellulose) (HPC) 102 % of control

COC1=C(OC)C(=O)C([Si](C)(C)C)=C(CO)C1=O
inactive: [2] 103 % of control | [3] 105 % of control

Nc1cccc2c1C(=O)c1nccnc1C2=O
inactive: dose: 100.0 mg/kg/injection, schedule: Q01DX001 (ip), vehicle: Klucel + Tween-80 98 % of control | dose: 200.0 mg/kg/injection, schedule: Q01DX001 (ip), vehicle: Klucel + Tween-80 98 % of control | dose: 400.0 mg/kg/injection, schedule: Q01DX001 (ip), vehicle: Klucel + Tween-80 97 % of control

CC1=C(/C=C/C(C)=C/C=C/C(C)=C/C(=O)O)C(C)(C)CCC1
inactive: dose: 32.0 mg/kg/injection, schedule: Q01DX005 (ip), vehicle: saline with Tween-80 119 % of control | dose: 64.0 mg/kg/injection, schedule: Q01DX005 (ip), vehicle: saline with Tween-80 111 % of control | [4] 105 % of control | dose: 128.0 mg/kg/injection, schedule: Q01DX005 (ip), vehicle: saline with Tween-80 103 % of control | [5] 115 % of control

Cc1nc(N)[nH]c(=O)c1N
inactive: dose: 12.5 mg/kg/injection, schedule: Q01DX005 (ip), vehicle: Klucel (hydroxypropylcellulose) (HPC) 99 % of control | dose: 25.0 mg/kg/injection, schedule: Q01DX005 (ip), vehicle: Klucel (hydroxypropylcellulose) (HPC) 108 % of control | [6] 103 % of control and 98 % of control | [7] 110 % of control

CC(=O)Nc1ccc(S(=O)(=O)n2c(=O)oc3ccc(Cl)cc32)cc1
inactive: [6] 99 % of control | [7] 94 % of control | [8] 94 % of control

CCOC(=O)C(CCc1ccc(N(CCCl)CCCl)cc1)(NC(C)=O)C(=O)OCC
inactive: dose: 12.5 mg/kg/injection, schedule: Q01DX009 (ip), vehicle: Klucel (hydroxypropylcellulose) (HPC) 109 % of control | dose: 25.0 mg/kg/injection, schedule: Q01DX009 (ip), vehicle: Klucel (hydroxypropylcellulose) (HPC) 111 % of control | [1] 116 % of control

CC(C)CSC(C)C
inactive: [9] 100 % of control | [4] 104 % of control | [5] 100 % of control

NC(=O)C(CO)NC(=O)c1cccnc1 (stereo unspecified)
inactive: dose: 60.0 mg/kg/injection, schedule: Q01DX005 (ip), vehicle: saline 100 % of control | dose: 120.0 mg/kg/injection, schedule: Q01DX005 (ip), vehicle: saline 100 % of control | dose: 240.0 mg/kg/injection, schedule: Q01DX005 (ip), vehicle: saline 99 % of control

CC(C)=CCCC(C)=CCON(C)C (mixture of isomers)
inactive: [10] 92 % of control | [11] 101 % of control

NC(=O)C[n+]1ccccc1
inactive: [12] 101 % of control | [13] 111 % of control | [14] 118 % of control | dose: 400.0 mg/kg/injection, schedule: Q01DX009 (ip), vehicle: saline 112 % of control

COc1ccc(CCNS(=O)(=O)c2c(C)c(C)c(C)c(C)c2C)cc1OC
inactive: [6] 93 % of control | [7] 88 % of control

CC1=NCc2c(nnn2C)N1
inactive: dose: 100.0 mg/kg/injection, schedule: Q01DX001 (ip), vehicle: Klucel (hydroxypropylcellulose) (HPC) 104 % of control | dose: 200.0 mg/kg/injection, schedule: Q01DX001 (ip), vehicle: Klucel (hydroxypropylcellulose) (HPC) 101 % of control

CCn1c(=O)c2c(NC)snc2n(CC)c1=O
inactive: [12] 97 % of control | [13] 95 % of control | [14] 98 % of control

NS(=O)(=O)c1ccc(Nc2c3ccccc3nc3ncccc23)cc1
inactive: [2] 92 % of control | [3] 91 % of control | dose: 30.0 mg/kg/injection, schedule: Q01DX005 (ip), vehicle: saline with Tween-80 92 % of control

Nc1nc(N)c2nc3c(ccc4ccccc43)nc2n1
inactive: dose: 60.0 mg/kg/injection, schedule: Q01DX005 (ip), vehicle: saline with Tween-80 94 % of control | dose: 120.0 mg/kg/injection, schedule: Q01DX005 (ip), vehicle: saline with Tween-80 96 % of control | dose: 240.0 mg/kg/injection, schedule: Q01DX005 (ip), vehicle: saline with Tween-80 104 % of control

COc1ccccc1N1CCN(CCc2c[nH]c3cc4c(cc23)OCO4)CC1
inactive: dose: 6.25 mg/kg/injection, schedule: Q01DX009 (ip), vehicle: saline with Tween-80 92 % of control | dose: 12.5 mg/kg/injection, schedule: Q01DX009 (ip), vehicle: saline with Tween-80 100 % of control | dose: 12.5 mg/kg/injection, schedule: Q04DX003 (ip), vehicle: saline with Tween-80 114 % of control | dose: 18.75 mg/kg/injection, schedule: Q01DX009 (ip), vehicle: Klucel (hydroxypropylcellulose) (HPC) 108 % of control | dose: 25.0 mg/kg/injection, schedule: Q01DX009 (ip), vehicle: saline with Tween-80 101 % of control | dose: 25.0 mg/kg/injection, schedule: Q04DX003 (ip), vehicle: saline with Tween-80 120 % of control | dose: 37.5 mg/kg/injection, schedule: Q01DX009 (ip), vehicle: Klucel (hydroxypropylcellulose) (HPC) 101 % of control | [15] 104 % of control | [9] 123 % of control | dose: 75.0 mg/kg/injection, schedule: Q01DX009 (ip), vehicle: Klucel (hydroxypropylcellulose) (HPC) 88 % of control | [4] 121 % of control

CN(C)c1ccc2c(c1)Oc1cc(N(C)C)ccc1C21c2ccccc2C(=O)N1N
inactive: [10] 100 % of control | [11] 90 % of control | [16] 90 % of control

C1=NCCCCCCCN=Cc2ccccc2NCCNc2ccccc21
inactive: dose: 100.0 mg/kg/injection, schedule: Q04DX003 (ip), vehicle: saline 94 % of control | dose: 200.0 mg/kg/injection, schedule: Q04DX003 (ip), vehicle: saline 92 % of control | dose: 400.0 mg/kg/injection, schedule: Q04DX003 (ip), vehicle: saline 108 % of control

CC(C)CC(N)C(=O)NC(Cc1cc2ccccc2[nH]1)C(=O)O (stereo unspecified)
inactive: [15] 101 % of control | dose: 100.0 mg/kg/injection, schedule: Q01DX009 (ip), vehicle: saline with Tween-80 107 % of control | dose: 200.0 mg/kg/injection, schedule: Q01DX009 (ip), vehicle: saline with Tween-80 104 % of control

O/N=C1/CN(CCN2CC(NO)=N/C(=N\O)C2)CC(NO)=N1
inactive: [6] 90 % of control | [7] 89 % of control | [8] 89 % of control

Cc1ccc(-c2nc3n(c2/C=N/NC(N)=S)CCS3)cc1
inactive: dose: 100.0 mg/kg/injection, schedule: Q01DX001 (ip), vehicle: saline with Tween-80 109 % of control | dose: 200.0 mg/kg/injection, schedule: Q01DX001 (ip), vehicle: saline with Tween-80 103 % of control | dose: 400.0 mg/kg/injection, schedule: Q01DX001 (ip), vehicle: saline with Tween-80 97 % of control

COC(CCC1N=C1c1ccccc1)OC (stereo unspecified)
inactive: [10] 105 % of control | [11] 102 % of control | [16] 102 % of control
